We go through 21 compounds from patent US20130217664A1, “NOVEL COMPOUNDS USEFUL FOR THE TREATMENT OF DEGENERATIVE AND INFLAMMATORY DISEASES” (priority 2012, published 2013).

Holding throughout (format): biochemical
One assay concerns the target T1, human JAK2 (Homo sapiens, UniProt O60674).
T1 construct: catalytic domain (amino acids 808-1132; catalog number PV4210); GST; purchased Invitrogen PV4210
As to the kind of experiment: JAK2 inhibition assay (polyGT substrate / Ulight-JAK1 peptide). Particulars: recombinant human JAK2 catalytic domain; polyGT or Ulight-JAK1 peptide assay. An outline of the steps: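 Two JAK2 formats: a ^33P-ATP polyGT assay (1 μM cold ATP, 90 min, 30° C., cpm read-out) and a Ulight-JAK1 peptide assay read by Europium-anti-phosphotyrosine fluorescence after 60 min at room temperature.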

In a further assay the target is T2, human JAK1 (Homo sapiens, UniProt P23458).
T2 construct: catalytic domain, amino acids 866-1154; catalog number PV4774; purchased Invitrogen PV4774
T2 sequence (P23458 866-1154): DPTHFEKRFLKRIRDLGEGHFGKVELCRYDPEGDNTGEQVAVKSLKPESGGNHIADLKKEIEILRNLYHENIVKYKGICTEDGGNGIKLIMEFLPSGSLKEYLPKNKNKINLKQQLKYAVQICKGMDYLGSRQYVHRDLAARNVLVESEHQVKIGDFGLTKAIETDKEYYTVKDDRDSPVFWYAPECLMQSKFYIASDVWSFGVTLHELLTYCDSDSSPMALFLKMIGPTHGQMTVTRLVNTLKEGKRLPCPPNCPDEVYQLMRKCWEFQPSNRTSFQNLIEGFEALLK
The assay can be described thus: JAK1 inhibition assay (polyGT substrate / Ulight-JAK1 peptide). Particulars: recombinant human JAK1 catalytic domain; polyGT or Ulight-JAK1 peptide assay. An outline of the steps:
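Signal scaled between vehicle and 10 μM staurosporine. Radiometric polyGT reactions ran 45 min at 30 °C, counted after phosphoric-acid stop. Ulight peptide reactions ran 60 min at room temperature, fluorescence read after adding Eu-PT66 detection mix with EDTA.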

For another assay, the target named is T3, human JAK3 (Homo sapiens, UniProt P52333).
T3 construct: catalytic domain (amino acids 781-1124; catalog number PV3855); purchased Invitrogen PV3855
T3 sequence (P52333 781-1124): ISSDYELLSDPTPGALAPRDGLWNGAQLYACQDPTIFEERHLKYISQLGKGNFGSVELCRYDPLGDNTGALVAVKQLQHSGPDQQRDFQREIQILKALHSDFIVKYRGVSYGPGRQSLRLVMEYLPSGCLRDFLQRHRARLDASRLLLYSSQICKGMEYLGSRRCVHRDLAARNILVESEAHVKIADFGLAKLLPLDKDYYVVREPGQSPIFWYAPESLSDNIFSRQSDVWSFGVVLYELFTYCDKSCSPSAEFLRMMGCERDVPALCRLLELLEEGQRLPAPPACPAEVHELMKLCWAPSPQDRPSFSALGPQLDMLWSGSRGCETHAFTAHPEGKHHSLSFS
The assay can be described thus: JAK3 inhibition assay. The settings on record: recombinant human JAK3 catalytic domain; polyGT substrate. The procedure, abridged: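 Radiometric kinase assay: 0.5 ng JAK3 with 2.5 μg polyGT in Tris pH 7.5/MgCl2 buffer, 1 μM ATP plus 0.25 μCi 33P-γ-ATP, 1% DMSO, 45 min at 30 °C, stopped with phosphoric acid.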

A word on the IC50: it is the concentration needed to halve the response being measured.

T1 sequence (O60674 808-1132): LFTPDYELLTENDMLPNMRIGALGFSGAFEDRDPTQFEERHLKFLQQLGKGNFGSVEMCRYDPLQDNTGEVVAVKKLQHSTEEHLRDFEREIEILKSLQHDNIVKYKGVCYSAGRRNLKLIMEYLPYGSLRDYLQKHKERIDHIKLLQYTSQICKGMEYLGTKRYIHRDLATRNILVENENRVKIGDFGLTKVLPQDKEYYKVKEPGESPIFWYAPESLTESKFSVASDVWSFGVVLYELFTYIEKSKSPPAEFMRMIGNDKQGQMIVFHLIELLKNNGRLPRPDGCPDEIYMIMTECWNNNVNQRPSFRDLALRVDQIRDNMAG

For `CCc1cc(O)ccc1N(C)c1cc2c(cn1)ncn2C` [Compound 107, 3-ethyl-4-(methyl(1-methyl-1H-imidazo[4,5-c]pyridin-6-yl)amino)phenol], the IC50 at human JAK2 was in the range of 0.01 to 100 nM; at human JAK1, 0.01 to 100 nM; at human JAK3 it was 101 to 500 nM.
Consider `Cc1cc(OCC#N)ccc1N(C)c1cc2c(cn1)ncn2C` [Compound 47, 2-(3-methyl-4-(methyl(1-methyl-1H-imidazo[4,5-c]pyridin-6-yl)amino)phenoxy)acetoni-trile], for which the results for the IC50 on human JAK2, at human JAK1 and on human JAK3 were 101 to 500 nM, 0.01 to 100 nM and 501 to 1000 nM, respectively.
Turning to `CCc1cc(-c2ccc(C#N)nc2)ccc1N(C)c1cc2c(cn1)ncn2C` [Compound 114, 5-(3-ethyl-4-(methyl(1-methyl-1H-imidazo[4,5-c]pyridin-6-yl)amino)phenyl)picolino-nitrile], the IC50 lay in the range of 101 to 500 nM on human JAK2, 0.01 to 100 nM at human JAK1 and 101 to 500 nM at human JAK3.
As to `CCc1cc(C(=O)NCCC#N)ccc1N(C)c1cc2c(cn1)ncn2C` [Compound 86, N-(2-Cyanoethyl)-3-ethyl-4-(methyl(1-methyl-1H-imidazo[4,5-c]pyridin-6-yl)amino)benzamide], the figures for the half-maximal inhibitory concentration (IC50) at human JAK2, at human JAK1 and on human JAK3 were 501 to 1000 nM, 0.01 to 100 nM and more than 1000 nM, respectively.
`CCc1cc(COC)ccc1N(C)c1cc2c(cn1)ncn2C` [Compound 105, N-(2-Ethyl-4-(methoxymethyl)phenyl)-N,1-dimethyl-1H-imidazo[4,5-c]pyridin-6-amine]: the values for the IC50 at human JAK2, at human JAK1 and on human JAK3 were 101 to 500 nM, 0.01 to 100 nM and 101 to 500 nM, respectively.
In the case of `Cc1cc(C(N)=O)ccc1N(C)c1cc2c(cn1)ncn2C` [Compound 32, 3-Methyl-4-(methyl(1-methyl-1H-imidazo[4,5-c]pyridin-6-yl)amino)benzamide], the figures for the IC50 on human JAK2, on human JAK1 and on human JAK3 were more than 1000 nM, 0.01 to 100 nM and more than 1000 nM, respectively.
With `CCc1cc(CNS(=O)(=O)C(F)F)c(F)cc1N(C)c1cc2c(cn1)ncn2C` [Compound 327, N-{5-Ethyl-2-fluoro-4-[methyl-(1-methyl-M-imidazo[4,5-c]pyridin-6-yl)-amino]-benzyl}-C,C-difluoro-methanesulfonamide], the IC50 at human JAK2, on human JAK1 and on human JAK3 was 0.01 to 100 nM throughout.
With `CN(c1ccc(CC#N)cc1)c1cc2c(cn1)ncn2C` [Compound 26, 2-(4-(Methyl(1-methyl-1H-imidazo[4,5-c]pyridin-6-yl)amino)phenyl)acetonitrile], the IC50 on human JAK2 was 101 to 500 nM; on human JAK1 it was 0.01 to 100 nM; at human JAK3, more than 1000 nM.
As to `COc1ccc(S(=O)(=O)N2CCCCC2)cc1N(C)c1cc2c(cn1)ncn2C` [Compound 314, [2-Methoxy-5-(piperidine-1-sulfonyl)-phenyl]-methyl-(1-methyl-1H-imidazo[4,5-d]pyridin-6-yl)-amine], the IC50 on human JAK2, at human JAK1 and at human JAK3 was more than 1000 nM in each case.
As to `CCc1cc(Cn2ccnc2)ccc1N(C)c1cc2c(cn1)ncn2C` [Compound 111, N-(4-((1H-imidazol-1-yl)methyl)-2-ethylphenyl)-N,1-dimethyl-1H-imidazo[4,5-c]pyridin-6-amine], the figures for the 50% inhibitory concentration (IC50) on human JAK2, at human JAK1 and at human JAK3 were 101 to 500 nM, 0.01 to 100 nM and 101 to 500 nM, respectively.
In the case of `CN(c1ccc(O)cc1)c1cc2c(cn1)ncn2C` [Compound 17, 4-(methyl(1-methyl-1H-imidazo[4,5-c]pyridin-6-yl)amino)phenol], the values for the IC50 on human JAK2, at human JAK1 and at human JAK3 were 501 to 1000 nM, 0.01 to 100 nM and more than 1000 nM, respectively.
For the compound `CCc1cc(CNS(=O)(=O)C(F)F)cc(F)c1N(C)c1cc2c(cn1)ncn2C` [Compound 324, N-{3-Ethyl-5-fluoro-4-[methyl-(1-methyl-1H-imidazo[4,5-c]pyridin-6-yl)-amino]-benzyl}-C,C-difluoro-methanesulfonamide], the IC50 on human JAK2, at human JAK1 and on human JAK3 was 0.01 to 100 nM each time.
For the compound `Cc1cc(-c2cncnc2)ccc1N(C)c1cc2c(cn1)ncn2C` [Compound 72, N,1-dimethyl-N-(2-methyl-4-(pyrimidin-5-yl)phenyl)-1H-imidazo[4,5-c]pyridin-6-amine], the IC50 at human JAK2 is more than 1000 nM; at human JAK1 it was 101 to 500 nM; on human JAK3 it was more than 1000 nM.
Turning to `Cc1cc(C#N)ccc1N(C)c1cc2c(cn1)ncn2C` [Compound 31, 3-Methyl-4-(methyl(1-methyl-1H-imidazo[4,5-c]pyridin-6-yl)amino)benzonitrile], the IC50 on human JAK2 is more than 1000 nM; on human JAK1 it was 0.01 to 100 nM; on human JAK3, more than 1000 nM.
Consider `CCc1cc(C2CN(C(=O)C(F)(F)F)C2)ncc1N(C)c1cc2c(cn1)ncn2C` [Compound 334, 1-(3-{4-Ethyl-5-[methyl-(1-methyl-1H-imidazo[4,5-c]pyridin-6-yl)-amino]-pyridin-2-yl}-azetidin-1-yl)-2,2,2-trifluoro-ethanone], for which the IC50 at human JAK2 lay in the range of 0.01 to 100 nM; at human JAK1, 0.01 to 100 nM; on human JAK3, 101 to 500 nM.
For the compound `CCc1cc(-c2ccc(CN)s2)ncc1N(C)c1cc2c(cn1)ncn2C` [Compound 303, [6-(5-Aminomethyl-thiophen-2-yl)-4-ethyl-pyridin-3-yl]-methyl-(1-methyl-1H-imidazo[4,5-c]pyridin-6-yl)-amine], the IC50 at human JAK2 is more than 1000 nM; on human JAK1, 501 to 1000 nM; on human JAK3, more than 1000 nM.
Consider `Cc1ccc(OCC#N)cc1N(C)c1cc2c(cn1)ncn2C` [Compound 57, 2-(4-methyl-3-(methyl(1-methyl-1H-imidazo[4,5-c]pyridin-6-yl)amino)phenoxy)acetoni-trile], for which the values for the IC50 on human JAK2, at human JAK1 and at human JAK3 were 101 to 500 nM, 0.01 to 100 nM and 101 to 500 nM, respectively.
With `COc1ccc(COc2ccc(N(C)c3cc4c(cn3)ncn4C)c(C)c2)cc1` [Compound 33, N-(4-(4-Methoxybenzyloxy)-2-methylphenyl)-N,1-dimethyl-1H-imidazo[4,5-c]pyridin-6-amine], the IC50 was more than 1000 nM on human JAK2, 0.01 to 100 nM at human JAK1 and more than 1000 nM at human JAK3.
With `CCc1cn(CCC#N)nc1N(C)c1cc2c(cn1)ncn2C` [Compound 316, 3-{4-Ethyl-3-[methyl-(1-methyl-1H-imidazo[4,5-c]pyridin-6-yl)-amino]-pyrazol-1-yl}-propionitrile], the IC50 at human JAK2, at human JAK1 and on human JAK3 was more than 1000 nM throughout.
Consider `CCc1cc(C(=O)NCCN(C)C)ccc1N(C)c1cc2c(cn1)ncn2C` [Compound 119, N-(2-(dimethylamino)ethyl)-3-ethyl-4-(methyl(1-methyl-1H-imidazo[4,5-c]pyridin-6-yl)amino)benzamide], for which the IC50 at human JAK2 was more than 1000 nM; at human JAK1, 0.01 to 100 nM; on human JAK3, more than 1000 nM.
As to `CCc1cc(CO)ccc1N(C)c1cc2c(cn1)ncn2C` [Compound 81, (3-Ethyl-4-(methyl(1-methyl-1H-imidazo[4,5-c]pyridin-6-yl)amino)phenyl)MeOH], the results for the IC50 on human JAK2, on human JAK1 and at human JAK3 were 101 to 500 nM, 0.01 to 100 nM and 101 to 500 nM, respectively.
